In patent US8470763B2, “Alpha-amino-N-substituted amides, pharmaceutical composition containing them and uses thereof” (Shanghai Institute of Materia Medica Chinese Academy of …, priority 2007, dated 2013):

Tests used:
[1] = system: MDA-MB-435S human breast cancer cells; assay: MTT assay, proliferation of MDA-MB-435S cells; type: cell-based; conditions: Homo sapiens, 72 h, read-out: Cell Survival Rate IC50
Method: The experiments for evaluating the antineoplasmic activities of the compounds according to the present invention were carried out, and the compounds' antineoplasmic activities in vitro was evaluated by determining the inhibitory activities thereof against the proliferation of MDA-MB-435S human breast cancer cells.
The antineoplasmic activities were determined by using the MTT assay, which is based on the metabolic reduction of 3-(4,5-dimethylthylthiazol-2-yl)-2,5-diphenyl tetrazolium bromide (MTT). The dehydrogenases, which are related to NADP (niacinamide adenine dinucleotide phosphate, coenzyme) and present in mitochondrions of living cells, can reduce the yellow MTT to an insoluble, dark purple formazan. […] After the formazan is dissolved in DMSO, the optical density is determined on an ELISA Reader at the wavelength of 550/690 nm.
The adhered MDA-MB-4355 cells in logarithmic growth phase, were digested by 0.05% trypsogen, counted and formulated into a cell suspension with a medium. After counted, the suspension was inoculated on a 96-well plate with 3000 cells and 100 μl medium per well. The inoculated 96-well plate was placed overnight in an incubator at 37 with 5% CO2 to allow the cells to adhere to the wall. On the next day, the administration of the drugs started. Before the administration, into some of the control wells, each was added 20 μl of the MTT solution (5 mg/ml) without removing the medium therein. After incubated for 3 h, the absorption at A550/690 was recorded as the initial cell concentration. For the drug wells, each was added into 100 μl of medium containing 2 μl of compound solution. For the control wells which use DMSO as background control, each was also added into 100 μl of medium containing 2 μl of DMSO. In addition, each experiment was carried out with adriamycin as the positive control. Subsequently, the 96-well plate was incubated in an incubator at 37 with 5% CO2 for 72 h. each compound was tested in triplicate wells (6 μl of compound solution was put into a sterilized eppendorf centrifuge tube, then 300 μl of medium was added and mixed well, and the mixture was distributed into 3 wells respectively), and at six concentrations which form a gradient. 3 days (72 h) later, 40 μl of MTT solution (5 mg/ml) was put into each well directly (without sucking off the medium therein), and the plate was incubated in the incubator for 3 h and then taken out. The liquid in each well was sucked off, and then 100 μl of DMSO was put into each well to dissolve the crystal completely with slight shake. The absorbance of the solution in each well was determined at 550/690 nm on an ELISA Reader as the cell density after treated with the compound. The growth inhibition of compound against breast cancer cells MDA-MB-435S was represented by the cell survival rate, and IC50 was determined from the profile of cell survival rate vs compound concentration. The calculating formula was as follows: cell survival rate=[(cells+compound)A550/690/(cells+compound vector DMSO)A550/690]×100%

[2] = system: human breast cancer cells MDA-MB-435 transplanted on nude mice; assay: Antineoplasmic activity in vivo, MDA-MB-435 transplanted tumor on nude mice; conditions: MMC 5 mg/kg, d1, i.v.
Method: Dosage: among 3 groups, the dosages of L538 were set at 5, 10 and 20 mg/kg as the high, middle and low dosages, respectively, administrating intravenously 3 times a week; while MMC was administrated intravenously at the first day whit a dosage of 5 mg/kg.
Animals: BALB/CA nude mice, male, 40-45 days old, body weight: 18±1 g, provided by Shanghai Institute of Materia Medica, Chinese Academy of Sciences. […] Animal number in each group: 7 in negative control group, and 4 in administration group.
The amount of inoculated cells was 5×10^6. After the transplanted tumor was formed by inoculation, it was used after passed for 3 generations in nude mice.
Experimental procedure: tumor tissue in productive phase was cut into nubs of about 1.5 mm^3. Under sterile conditions, the nubs were inoculated subcutaneously in right axillary fossa of the nude mice. The diameters of the transplanted tumors on nude mice were measured by a vernier caliper. When the tumors grew up to 100-200 mm^3, the animals were divided randomly into groups. Mice in experimental groups were administered intravenously every other day. […] The total administration duration was 3 weeks. For the positive control, MMC, Mice were administered intravenously once at the first day of a week, and the total administration duration was 3 weeks. Mice in control groups were administrated physiologic saline in equivalent amount. The diameter of the tumor and weight of mice were measured twice a week. The equation for calculating the TV (tumor volume) was as follows: TV=½×a×b^2, • wherein, a is length and b is width. RTV (relative tumor volume) was calculated based on the measured results, and the equation thereof was as follows: RTV=Vt/V0 • wherein, V0 is the tumor volume measured when the mice were grouped (i.e. d0), and Vt is the tumor volume at each measurement. The evaluation index for the antitumor activity was the relative tumor proliferation rateT/C (%).
The calculation equation was as follows: T/C(%)=(TRTV/CRTV)×100, • wherein, TRTV is the RTV of therapeutic Group and CRTV is RTV of negative control group.

SMILES	IC50 [1]	further results
C=CCNC(=O)[C@H](C)NC(=O)[C@H](OC)[C@H](O)[C@@H](O)[C@H](O)/C=C/C(C)(C)C [Compound L372]	3.53 µM	–
CO[C@@H](C(=O)N[C@@H](C)C(=O)NCCO)[C@H](O)[C@@H](O)[C@H](O)/C=C/C(C)(C)C [Compound L376]	5.44 µM	–
C=CCNC(=O)[C@@H](NC(=O)[C@H](OC)[C@H](O)[C@@H](O)[C@H](O)/C=C/C(C)(C)C)C(C)C [Compound L400]	9.68 µM	–
CO[C@@H](C(=O)N[C@@H](CC(C)C)C(=O)NCCO)[C@H](O)[C@@H](O)[C@H](O)/C=C/C(C)(C)C [Compound L418b]	1.5 µM	–
CO[C@@H](C(=O)N[C@@H](C)C(=O)NCCOC(C)C)[C@H](O)[C@@H](O)[C@H](O)/C=C/C(C)(C)C [Compound L418c]	13.9 µM	–
C=CCNC(=O)[C@H](CCSC)NC(=O)[C@H](OC)[C@H](O)[C@@H](O)[C@H](O)/C=C/C(C)(C)C [Compound L432]	4.57 µM	–
CO[C@@H](C(=O)N[C@@H](C)C(=O)NCCOCC(C)C)[C@H](O)[C@@H](O)[C@H](O)/C=C/C(C)(C)C [Compound L432a]	40 µM	–
CO[C@@H](C(=O)N[C@@H](C)C(=O)NCCCOC(C)C)[C@H](O)[C@@H](O)[C@H](O)/C=C/C(C)(C)C [Compound L432b]	21.6 µM	–
CO[C@@H](C(=O)N[C@@H](C)C(=O)NCCOC(=O)C1CC1)[C@H](O)[C@@H](O)[C@H](O)/C=C/C(C)(C)C [Compound L444g]	6.07 µM	–
CO[C@@H](C(=O)N[C@@H](C)C(=O)NCCOC(=O)C(C)C)[C@H](O)[C@@H](O)[C@H](O)/C=C/C(C)(C)C [Compound L446a]	7.06 µM	–
CO[C@@H](C(=O)N[C@@H](C)C(=O)NCCCOCC(C)C)[C@H](O)[C@@H](O)[C@H](O)/C=C/C(C)(C)C [Compound L446b]	9.56 µM	–
CO[C@@H](C(=O)N[C@@H](Cc1ccccc1)C(=O)NCCO)[C@H](O)[C@@H](O)[C@H](O)/C=C/C(C)(C)C [Compound L452]	5.25 µM	–
CO[C@@H](C(=O)N[C@@H](C)C(=O)NCCOC(=O)C1CCC1)[C@H](O)[C@@H](O)[C@H](O)/C=C/C(C)(C)C [Compound L458]	0.89 µM	–
CO[C@@H](C(=O)N[C@@H](C)C(=O)NCCOC(=O)C(C)(C)C)[C@H](O)[C@@H](O)[C@H](O)/C=C/C(C)(C)C [Compound L460]	3.38 µM	–
CO[C@@H](C(=O)N[C@@H](C)C(=O)NCCOCc1ccccc1)[C@H](O)[C@@H](O)[C@H](O)/C=C/C(C)(C)C [Compound L466]	~10 µM	–
CO[C@@H](C(=O)N[C@@H](C)C(=O)NCC(=O)NC1CCCCC1)[C@H](O)[C@@H](O)[C@H](O)/C=C/C(C)(C)C [Compound L471]	4.79 µM	–
C#CCCCC(=O)OCCNC(=O)[C@H](C)NC(=O)[C@H](OC)[C@H](O)[C@@H](O)[C@H](O)/C=C/C(C)(C)C [Compound L471b]	0.11 µM	–
CO[C@@H](C(=O)N[C@@H](C)C(=O)NCCOC(=O)C1CCCC1)[C@H](O)[C@@H](O)[C@H](O)/C=C/C(C)(C)C [Compound L472-3]	0.72 µM	–
CO[C@@H](C(=O)N[C@@H](C)C(=O)NCC(=O)OC1CCCCC1)[C@H](O)[C@@H](O)[C@H](O)/C=C/C(C)(C)C [Compound L472-4]	1.54 µM	–
CO[C@@H](C(=O)N[C@@H](C)C(=O)NCCCOC1CCCCC1)[C@H](O)[C@@H](O)[C@H](O)/C=C/C(C)(C)C [Compound L472]	> 2.5 µM	–

SMILES	IC50 [1]	further results
CO[C@@H](C(=O)N[C@@H](C)C(=O)NCCOC(=O)[C@H]1CCCO1)[C@H](O)[C@@H](O)[C@H](O)/C=C/C(C)(C)C [Compound L474]	8.86 µM	–
CO[C@@H](C(=O)N[C@@H](C)C(=O)NCCOC(=O)c1ccccc1)[C@H](O)[C@@H](O)[C@H](O)/C=C/C(C)(C)C [Compound L480]	2.37 µM	–
CO[C@@H](C(=O)N[C@@H](C)C(=O)NCCNC(=O)C1CCCCC1)[C@H](O)[C@@H](O)[C@H](O)/C=C/C(C)(C)C [Compound L485]	3.15 µM	–
C=CCNC(=O)[C@H](CCC(=O)OC(C)(C)C)NC(=O)[C@H](OC)[C@H](O)[C@@H](O)[C@H](O)/C=C/C(C)(C)C [Compound L486e]	2.85 µM	–
CO[C@@H](C(=O)N[C@@H](Cc1c[nH]c2ccccc12)C(=O)NCCO)[C@H](O)[C@@H](O)[C@H](O)/C=C/C(C)(C)C [Compound L491]	5.13 µM	–
CO[C@@H](C(=O)N[C@@H](C)C(=O)NCC(C)OC(=O)C1CCCCC1)[C@H](O)[C@@H](O)[C@H](O)/C=C/C(C)(C)C (stereo partly drawn) [Compound L500a]	0.8 µM	–
CO[C@@H](C(=O)N[C@@H](C)C(=O)NCCCOC(=O)C1CCCCC1)[C@H](O)[C@@H](O)[C@H](O)/C=C/C(C)(C)C [Compound L500b]	0.14 µM	–
CO[C@@H](C(=O)N[C@@H](C)C(=O)NCCOC(=O)CC1CCCCC1)[C@H](O)[C@@H](O)[C@H](O)/C=C/C(C)(C)C [Compound L500c]	1.93 µM	–
CCCCC(CC)C(=O)OCCNC(=O)[C@H](C)NC(=O)[C@H](OC)[C@H](O)[C@@H](O)[C@H](O)/C=C/C(C)(C)C (stereo partly drawn) [Compound L502]	2.55 µM	–
CO[C@@H](C(=O)N[C@H](C(=O)NCCOC(=O)C1CCCCC1)C(C)C)[C@H](O)[C@@H](O)[C@H](O)/C=C/C(C)(C)C [Compound L514c]	2.22 µM	–
CO[C@@H](C(=O)N[C@@H](C)C(=O)NCC1CC(Cc2ccccc2)C(=O)O1)[C@H](O)[C@@H](O)[C@H](O)/C=C/C(C)(C)C (stereo partly drawn) [Compound L521]	25.2 µM	–
CCC(C)[C@H](NC(=O)[C@H](OC)[C@H](O)[C@@H](O)[C@H](O)/C=C/C(C)(C)C)C(=O)NCCOC(=O)C1CCCCC1 (stereo partly drawn) [Compound L528a]	3.24 µM	–
CO[C@@H](C(=O)N[C@@H](CC(C)C)C(=O)NCCOC(=O)C1CCCCC1)[C@H](O)[C@@H](O)[C@H](O)/C=C/C(C)(C)C [Compound L528b]	2.62 µM	–
CCCC[C@H](NC(=O)[C@H](OC)[C@H](O)[C@@H](O)[C@H](O)/C=C/C(C)(C)C)C(=O)NCCOC(=O)C1CCCCC1 [Compound L528c]	2.91 µM	–
CO[C@@H](C(=O)N[C@@H](C)C(=O)NCCOC(=O)OCCCc1ccccc1)[C@H](O)[C@@H](O)[C@H](O)/C=C/C(C)(C)C [Compound L538b]	0.76 µM	–
C=CCNC(=O)[C@H](Cc1cn(COCc2ccccc2)cn1)NC(=O)[C@H](OC)[C@H](O)[C@@H](O)[C@H](O)/C=C/C(C)(C)C [Compound L558b]	1.9 µM	–
CO[C@@H](C(=O)N[C@@H](C)C(=O)NCCOC(=O)CCCCCCCCCN=[N+]=[N-])[C@H](O)[C@@H](O)[C@H](O)/C=C/C(C)(C)C [Compound L572]	0.11 µM	–
CO[C@@H](C(=O)N[C@@H](CCCCNC(=O)OC(C)(C)C)C(=O)NCCOC(=O)C1CCCCC1)[C@H](O)[C@@H](O)[C@H](O)/C=C/C(C)(C)C [Compound L643]	1.56 µM	–
CO[C@@]12[C@H](COC(N)=O)C3=C(C(=O)C(C)=C(N)C3=O)N1C[C@@H]1N[C@@H]12 [MMC, mitomycin, reference compound]	–	T/C (%) ([2]; P <0.05): 44.3%; TV (mm^3) d21 ([2]; d0 132 ± 52): 844 ± 308 mm^3; RTV ([2]; d21): 6.6 ± 1.6; Body Weight(g) Ultimate ([2]; initial 17.8 g): 21.7 g
